Columns and labels:
[1] = cells; conditions: Homo sapiens, Bortezomib-resistant RPMI-8226, 72 h
[2] = biological target: Baculoviral IAP repeat-containing protein 5 (Homo sapiens) (UniProt O15392); test: Ratio of IC50 for inhibition of survivin in human ANBL6 cells assessed as reduction of cell viability to IC50 for inhibition of survivin in human ANBL6/BR resistant cells assessed as reduction of cell viability; format: cell-based
[3] = biological target: Baculoviral IAP repeat-containing protein 5 (Homo sapiens) (UniProt O15392); test: Ratio of IC50 for inhibition of survivin in human RPMI-8226 cells assessed as reduction of cell viability to IC50 for inhibition of survivin in human melphalan-resistant RPMI-8226 cells assessed as reduction of cell viability; format: cell-based; conditions: time 72.0 hrs
[4] = biological target: Baculoviral IAP repeat-containing protein 5 (Homo sapiens) (UniProt O15392); test: Ratio of IC50 for inhibition of survivin in human RPMI-8226 cells assessed as reduction of cell viability to IC50 for inhibition of survivin in human RPMI-8226/BR resistant cells assessed as reduction of cell viability; format: cell-based
[5] = Ratio of IC50 for inhibition of CAMKII in human ANBL6 cells assessed as reduction of cell viability to IC50 for inhibition of CAMKII in human ANBL6/BR resistant cells assessed as reduction of cell viability; conditions: condition multiple myeloma
[6] = Inhibition of CAMKII in Melphalan Resistant human RPMI-8226 cells assessed as reduction of cell growth incubated for 72 hrs by CellTiter 96 aqueous one solution cell proliferation assay; format: cell-based; conditions: Melphalan-resistant RPMI-8226 cell
[7] = Inhibition of CAMKII in human U-266 cells assessed as reduction of cell growth incubated for 72 hrs by CellTiter 96 aqueous one solution cell proliferation assay; format: cell-based; conditions: U-266, 72 h
[8] = Inhibition of CAMKII in human ANBL-6 cells assessed as reduction of cell growth incubated for 72 hrs by CellTiter 96 aqueous one solution cell proliferation assay; format: cell-based; conditions: ANBL-6, 72 h
[9] = Inhibition of CAMKII in human bortezomib-resistant ANBL6 cells assessed as reduction of cell growth incubated for 72 hrs by CellTiter 96 aqueous one solution cell proliferation assay; format: cell-based
[10] = Ratio of IC50 for inhibition of CAMKII in human RPMI-8226 cells assessed as reduction of cell viability to IC50 for inhibition of CAMKII in human melphalan-resistant RPMI-8226 cells assessed as reduction of cell viability; conditions: time 72 hrs; condition multiple myeloma
[11] = Inhibition of CAMKII in human RPMI-8226 cells assessed as reduction of cell growth incubated for 72 hrs by CellTiter 96 aqueous one solution cell proliferation assay; format: cell-based; conditions: RPMI-8226, 72 h
[12] = Ratio of IC50 for inhibition of CAMKII in human RPMI-8226 cells assessed as reduction of cell viability to IC50 for inhibition of CAMKII in human RPMI-8226/BR resistant cells assessed as reduction of cell viability; conditions: condition multiple myeloma
[13] = Inhibition of CAMKII in bortezomib Resistant human RPMI-8226 cells assessed as reduction of cell growth incubated for 72 hrs by CellTiter 96 aqueous one solution cell proliferation assay; format: cell-based; conditions: Bortezomib-resistant RPMI-8226, 72 h
[14] = cells; conditions: Homo sapiens, RPMI-8226, 72 h
[15] = cells; conditions: Homo sapiens, U-266, 72 h
[16] = biological target: T1, Heat shock protein HSP90 (Homo sapiens, UniProt P07900+P08238); conditions: anbl-6
[17] = biological target: T1, Heat shock protein HSP90; conditions: bortezomib-resistant rpmi-8226
[18] = biological target: T1, Heat shock protein HSP90; conditions: rpmi-8226
[19] = biological target: T1, Heat shock protein HSP90; conditions: bortezomib-resistant anbl6 cell
[20] = biological target: T1, Heat shock protein HSP90; conditions: melphalan-resistant rpmi-8226 cell
[21] = biological target: T1, Heat shock protein HSP90; conditions: u-266
[22] = cells; conditions: Homo sapiens, ANBL-6, 72 h
[23] = cells; conditions: Homo sapiens, Bortezomib-resistant ANBL6 cell, 72 h
[24] = cells; conditions: Homo sapiens, RPMI-8226, 72 h; remark: listed apart in the source
[25] = cells; conditions: Homo sapiens, Melphalan-resistant RPMI-8226 cell, 72 h
[26] = cells; conditions: Homo sapiens, U-266, 72 h; remark: listed apart in the source
[27] = cells; conditions: Homo sapiens, Bortezomib-resistant RPMI-8226, 72 h; remark: listed apart in the source
[28] = cells; conditions: Homo sapiens, ANBL-6, 72 h; remark: listed apart in the source
[29] = cells; conditions: Homo sapiens, Melphalan-resistant RPMI-8226 cell, 72 h; remark: listed apart in the source
[30] = cells; conditions: Homo sapiens, Bortezomib-resistant ANBL6 cell, 72 h; remark: listed apart in the source
[31] = cells; conditions: Homo sapiens, Bortezomib-resistant RPMI-8226, 72 h; remark: listed apart in the source
[32] = cells; conditions: Homo sapiens, Bortezomib-resistant ANBL6 cell, 72 h; remark: listed apart in the source
[33] = cells; conditions: Homo sapiens, U-266, 72 h; remark: listed apart in the source
[34] = cells; conditions: Homo sapiens, Bortezomib-resistant RPMI-8226, 72 h; remark: listed apart in the source
[35] = cells; conditions: Homo sapiens, ANBL-6, 72 h; remark: listed apart in the source
[36] = cells; conditions: Homo sapiens, Melphalan-resistant RPMI-8226 cell, 72 h; remark: listed apart in the source
[37] = cells; conditions: Homo sapiens, RPMI-8226, 72 h; remark: listed apart in the source

Chain of Baculoviral IAP repeat-containing protein 5 (Homo sapiens) (O15392 whole entry): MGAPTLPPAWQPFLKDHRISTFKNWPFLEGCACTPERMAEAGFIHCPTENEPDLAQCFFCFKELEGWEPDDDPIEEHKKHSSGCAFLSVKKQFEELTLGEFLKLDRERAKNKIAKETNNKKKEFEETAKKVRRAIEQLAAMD

Cc1[nH]c(/C=C2/C(=O)Nc3ccc(S(=O)(=O)N(C)c4cccc(Cl)c4)cc32)c(C)c1C(=O)N1CCN(C)CC1
IC50 [1]: 10 µM

COCC[n+]1c2c(n(Cc3cnccn3)c1C)C(=O)c1ccccc1C2=O
Ratio IC50 [2]: 3.15
Ratio IC50 [3]: 1.5
Ratio IC50 [4]: 0.33

COc1ccc(S(=O)(=O)Nc2ccccc2CN(C)C/C=C/c2ccc(Cl)cc2)cc1
Ratio IC50 [5]: 1
IC50 [6]: 4.79 µM
IC50 [7]: 10 µM
IC50 [8]: 10 µM
IC50 [9]: 10 µM
Ratio IC50 [10]: 2.1
IC50 [11]: 10 µM
Ratio IC50 [12]: 1
IC50 [13]: 10 µM

COc1cc(Oc2ccnc3cc(OC)c(OC)cc23)ccc1NC(=O)NC(C)c1nccs1 (centres undefined)
IC50 [14]: 10 µM
IC50 [15]: 10 µM

CN(NC(=O)CC(=O)NN(C)C(=S)c1ccccc1)C(=S)c1ccccc1 [ELESCLOMOL]
IC50 [16]: 0.0489 µM
IC50 [17]: 0.0229 µM
IC50 [18]: 0.0167 µM
IC50 [19]: 0.0076 µM
IC50 [20]: 0.0072 µM
IC50 [21]: 0.0535 µM

O=c1cc(N2CCOCC2)oc2c(-c3ccccc3)cccc12 [LY-294002]
IC50 [22]: 9.87 µM
IC50 [23]: 2.42 µM
IC50 [24]: 1.43 µM
IC50 [25]: 2.23 µM
IC50 [26]: 6.58 µM
IC50 [27]: 1.33 µM

COc1cc2c(Oc3ccc4[nH]c(C)cc4c3F)ncnc2cc1OCCCN1CCCC1 [CEDIRANIB]
IC50 [28]: 10 µM
IC50 [14]: 2.95 µM
IC50 [29]: 4.79 µM
IC50 [30]: 10 µM
IC50 [15]: 6.46 µM
IC50 [31]: 2.46 µM

CN1CCN(CCOc2cc(OC3CCOCC3)c3c(Nc4c(Cl)ccc5c4OCO5)ncnc3c2)CC1 [SARACATINIB]
IC50 [32]: 10 µM
IC50 [33]: 6.61 µM
IC50 [34]: 10 µM
IC50 [35]: 10 µM
IC50 [36]: 9.55 µM
IC50 [37]: 10 µM

Reference: ChEMBL document CHEMBL5715952 (Oncotarget, 2015)
